Results as given in patent publication US20240150339A1, “Compounds and Their Use as PDE4 Activators” (Mironid Limited, priority 2021, published 2024).

test system: m-IMCD3 cells; assay: Inhibition of PGE2-stimulated in vitro cyst formation in 3D culture of m-IMCD3 cells; type: cell-based, mouse; settings: Mus musculus, mIMCD3, 144 h; 10 μM test compound; mean cyst area (%) compared to 100% for (DMSO + PGE2) and 0% for DMSO control; 100 nM PGE2; 6 days; read-out: % Cyst area after incubation with 10 μM test compound
Method: HEK 293 and MDCK cells (Public Health England, Cell Culture Collections) were maintained in Dulbecco's Modified Eagle's Medium (DMEM) supplemented with 10% (v/v) fetal bovine serum (FBS) (Seralab), 2 mM L-glutamine and 100 U/ml penicillin streptomycin cocktail (ThermoFisher); termed complete media. Clonal HEK 293 cell lines were maintained in complete media supplemented with 0.6 mg/mL G418 (Enzo Life Sciences). Mouse inner medullary collecting duct (m-IMCD3) cells [American Type Culture Collection (ATCC)] were maintained in media consisting of DMEM/Hams F-12 50/50 Mix (DMEM F12; Corning) supplemented with penicillin streptomycin cocktail (100 U/ml) and FBS (10% v/v) (DMEM F12-10% FBS).
The mouse Inner Medullary Collecting Duct cell line (m-IMCD3) spontaneously forms cystic spheroids in 3D culture with a Type 1 collagen/Matrigel extracellular matrix. This process can be stimulated with agents which raise intracellular cAMP, such as PGE2, and is used as an in vitro model for the formation of cystic structures in the kidneys of patients with ADPKD.
Rat Collagen I (Fisher Scientific) is prepared on ice by neutralising with 1M NaOH and diluting with a 2×volume of DMEM/F12+10% FBS for coating plate (coating mix) and a 2.2 volume of DMEM/F12+10% FBS for cell plating (plating mix). This is mixed 1:1.1 with ice cold Matrigel (Corning) for coating plates (coating mix), and 1:0.95 with Matrigel for cell plating (plating mix).
The assay is conducted in the wells of a 96-well plate culture dish using a total volume of 130 μl of collagen/Matrigel/DMEM F12-10% FBS suspension in growth media for each matrix plug per individual well. Initially, 30 μl of collagen/Matrigel/DMEM F12-10% FBS (coating mix) is added into the well of a 96 well plate and the collagen is set to a gel by incubating at 37° C. for at least 15 minutes. A second layer of 100 μl collagen/Matrigel suspension (plating mix) containing m-IMCD3 cells (2.75×10^6 m-IMCD3 cells per 96-well plate) is layered over the coating mix and the collagen/Matrigel/cell mix again set to a gel by incubating at 37° C. Cell cultures are maintained at 37° C. in an atmosphere of 5% CO2, 95% air.
Between 18 and 24h after plating, test compound(s) as DMSO stock solutions [0.1% (v/v) final DMSO concentration] and PGE2 (100 nM final concentration) in DMEM F12-10% FBS are added in quadruplicate wells per condition. Media, togetherwith the test compound and PGE2 are replenished after 2 or 3 days. After 6 days of culture z stack images of the wells are captured using the Nikon Eclipse Ti2-E microscope. Nikon General Analysis software is used to measure the following parameters in each well: the mean cyst area, the number of cysts, and the total cyst area.
PDE4 long form activators inhibited in vitro cyst formation in m-IMCD3 cells. Data are shown in FIG. 2 and Table 5 as mean cyst area (%), compared to 100% for (DMSO+PGE2) and 0% for DMSO control.

Compared with O=C(N[C@H]1CCOc2ccccc21)c1ccc2nc(N3CC4CCC(C3)N4)sc2c1 [Example 121, 2-(3,8-diazabicyclo[3.2.1]octan-3-yl)-N-((S)-chroman-4-yl)benzo[d]thiazole-6-carboxamide], COCCOCCN1CCC(c2nc3ccc(C(=O)N[C@H]4CCOc5ccccc54)cc3s2)CC1 [Example 175, (S)-N-(chroman-4-yl)-2-(1-(2-(2-methoxyethoxy)ethyl)piperidin-4-yl)benzo[d]thiazole-6-carboxamide] is lower in activity at 10 µM: 15% for the first, -14% for the second.

Going from O=C(NCc1ccc(F)cc1)c1ccc2nc(C3CCNCC3)sc2c1 [Example 124, N-(4-fluorobenzyl)-2-(piperidin-4-yl)benzo[d]thiazole-6-carboxamide] to O=C(N[C@H]1CCc2ccccc21)c1ccc2nc(C3CCNCC3)sc2c1 [Example 127, (S)-N-(2,3-dihydro-1H-inden-1-yl)-2-(piperidin-4-yl)benzo[d]thiazole-6-carboxamide], the activity at 10 µM rises from 11% to 13%.

Compared with O=C(N[C@@H]1c2ccccc2C[C@H]1O)c1ccc2nc(C3CCNCC3)sc2c1 [Example 128, N-((1R,2R)-2-hydroxy-2,3-dihydro-1H-inden-1-yl)-2-(piperidin-4-yl)benzo[d]thiazole-6-carboxamide], O=C(N[C@@H]1c2ccccc2C[C@@H]1O)c1ccc2nc(C3CCNCC3)sc2c1 [Example 130, N-((1R,2S)-2-hydroxy-2,3-dihydro-1H-inden-1-yl)-2-(piperidin-4-yl)benzo[d]thiazole-6-carboxamide] is lower in activity at 10 µM: 3% for the first, -2% for the second.

Compared with O=C(NC1CCCC1)c1ccc2nc(C3CCNCC3)sc2c1 [Example 134, N-cyclopentyl-2-(piperidin-4-yl)benzo[d]thiazole-6-carboxamide], O=C(NC1CCOCC1)c1ccc2nc(C3CCNCC3)sc2c1 [Example 138, 2-(piperidin-4-yl)-N-(tetrahydro-2H-pyran-4-yl)benzo[d]thiazole-6-carboxamide] is higher in activity at 10 µM: 16% for the first, 20% for the second.

Going from CCN1CCC(c2nc3ccc(C(=O)N[C@@H]4c5ccccc5C[C@@H]4O)cc3s2)CC1 [Example 166, 2-(1-ethylpiperidin-4-yl)-N-((1R,2S)-2-hydroxy-2,3-dihydro-1H-inden-1-yl)benzo[d]thiazole-6-carboxamide] to CCN1CCC(c2nc3ccc(C(=O)N[C@H]4CCc5ccccc54)c(C)c3s2)CC1 [Example 196, (S)-N-(2,3-dihydro-1H-inden-1-yl)-2-(1-ethylpiperidin-4-vy)-7-methylbenzo[d]thiazole-6-carboxamide], the activity at 10 µM rises from -10% to 10%.

Going from O=C(NC1CCCC1)c1ccc2nc(C3CCN(CCO)CC3)sc2c1 [Example 171, N-cyclopentyl-2-(1-(2-hydroxyethyl)piperidin-4-yl)benzo[d]thiazole-6-carboxamide] to CCN1CCC(c2nc3ccc(C(=O)NC4CCCC4)c(C)c3s2)CC1 [Example 193, N-cyclopentyl-2-(1-ethylpiperidin-4-yl)-7-methylbenzo[d]thiazole-6-carboxamide], the activity at 10 µM falls from 13% to 2%.

Going from Cc1cc(C(=O)NC2CCCC2)cc2sc(C3CCNCC3)nc12 [Example 181, N-cyclopentyl-4-methyl-2-(piperidin-4-yl)benzo[d]thiazole-6-carboxamide] to Cc1cc(C(=O)NC2CCCC2)cc2sc(N3CCNCC3)nc12 [Example 206, N-cyclopentyl-4-methyl-2-(piperazin-1-yl)benzo[d]thiazole-6-carboxamide], the activity at 10 µM rises from 13% to 14%.

Going from Cc1cc(C(=O)N[C@H]2CCOc3ccccc32)cc2sc(C3CCNCC3)nc12 [Example 186, (S)-N-(chroman-4-yl)-4-methyl-2-(piperidin-4-yl)benzo[d]thiazole-6-carboxamide] to Cc1cc(C(=O)N[C@H]2CCOc3ccccc32)c(C)c2sc(C3CCNCC3)nc12 [Example 230, (S)-N-(chroman-4-yl)-4,7-dimethyl-2-(piperidin-4-yl)benzo[d]thiazole-6-carboxamide], the activity at 10 µM rises from 4% to 25%.

Going from CCN1CCC(c2nc3cc(C)c(C(=O)N[C@H]4CCOc5ccccc54)cc3s2)CC1 [Example 191, (S)-N-(chroman-4-yl)-2-(1-ethylpiperidin-4-yl)-5-methylbenzo[d]thiazole-6-carboxamide] to Cc1c(C(=O)N[C@H]2CCOc3ccccc32)ccc2nc(N3CCNCC3)sc12 [Example 219, (S)-N-(chroman-4-yl)-7-methyl-2-(piperazin-1-yl)benzo[d]thiazole-6-carboxamide], the activity at 10 µM falls from 3% to 2%.

Compared with COc1cc2nc(C3CCNCC3)sc2cc1C(=O)NC1CCOCC1 [Example 200, 5-methoxy-2-(piperidin-4-yl)-N-(tetrahydro-2H-pyran-4-yl)benzo[d]thiazole-6-carboxamide], CC(C)NC(=O)c1cc(C2CC2)c2nc(C3CCNCC3)sc2c1 [Example 232, 4-cyclopropyl-N-isopropyl-2-(piperidin-4-yl)benzo[d]thiazole-6-carboxamide] is lower in activity at 10 µM: 3% for the first, -2% for the second.

Going from CCN1CCN(c2nc3c(C)cc(C(=O)NC4CCOCC4)cc3s2)CC1 [Example 210, 2-(4-ethylpiperazin-1-yl)-4-methyl-N-(tetrahydro-2H-pyran-4-yl)benzo[d]thiazole-6-carboxamide] to CCN1CCN(c2nc3c(OC)cc(C(=O)NC4CCCC4)cc3s2)CC1 [Example 222, N-cyclopentyl-2-(4-ethylpiperazin-1-yl)-4-methoxybenzo[d]thiazole-6-carboxamide], the activity at 10 µM falls from 3% to 1%.

Going from COc1cc2nc(N3CCNCC3)sc2cc1C(=O)N[C@H]1CCc2ccccc21 [Example 224, (S)-N-(2,3-dihydro-1H-inden-1-yl)-5-methoxy-2-(piperazin-1-yl)benzo[d]thiazole-6-carboxamide] to O=C(NC1CCC1)c1cc(Cl)c2nc(N3CCNCC3)sc2c1 [Example 234, 4-chloro-N-cyclobutyl-2-(piperazin-1-yl)benzo[d]thiazole-6-carboxamide], the activity at 10 µM falls from 8% to 3%.

Compared with CN1CCC(c2nc3c(Cl)cc(C(=O)NC4CCCC4)cc3s2)CC1 [Example 231, 4-chloro-N-cyclopentyl-2-(1-methylpiperidin-4-yl)benzo[d]thiazole-6-carboxamide], O=C(NC1CCCC1)c1cc(Br)c2nc(N3C4CCC3CNC4)sc2c1 [Example 237, 2-(3,8-diazabicyclo[3.2.1]octan-8-yl)-4-bromo-N-cyclopentylbenzo[d]thiazole-6-carboxamide] is higher in activity at 10 µM: 1% for the first, 11% for the second.

Compared with O=C(NC1CCC(F)(F)CC1)c1ccc2nc(N3C4CCC3CN(CCCO)C4)sc2c1 [Example 243, N-(4,4-difluorocyclohexyl)-2-(3-(3-hydroxypropyl)-3,8-diazabicyclo[3.2.1]octan-8-yl)benzo[d]thiazole-6-carboxamide], CN1C[C@@H]2CN(c3nc4ccc(C(=O)NC5CCCCC5)cc4s3)C[C@@H]2C1 [Example 261, N-cyclohexyl-2-((3aR,6aS)-5-methylhexahydropyrrolo[3,4-c]pyrrol-2 (1H)-yl)benzo[d]thiazole-6-carboxamide] is lower in activity at 10 µM: 6% for the first, 3% for the second.

First: CC(CO)c1cc(C(=O)NC2CCCC2)cc2sc(N3C4CCC3CNC4)nc12 (centres unmarked) [Example 249, N-cyclopentyl-2-(3,8-diazabicyclo[3.2.1]octan-8-yl)-4-(1-hydroxypropan-2-yl)-benzo[d]thiazole-6-carboxamide]
Second: O=C(NC1CCCC1)c1ccc2nc(N3CCCC4NCCC43)sc2c1 (centres unmarked) [Example 258, N-cyclopentyl-2-(octahydro-4H-pyrrolo[3,2-b]pyridin-4-yl)benzo[d]thiazole-6-carboxamide]
The activity at 10 µM of the first is lower: 9% for the first, 11% for the second.

With O=C(NC1CCCC1)c1ccc2nc(N3CC4(CNC4)C3)sc2c1 [Example 255, N-cyclopentyl-2-(2,6-diazaspiro[3.3]heptan-2-yl)benzo[d]thiazole-6-carboxamide] the activity at 10 µM was 11%.

same assay, conditions: result in words

CCN1CCC(c2nc3cc(C)c(C(=O)N[C@H]4CCOc5ccccc54)cc3s2)CC1 [Example 191, (S)-N-(chroman-4-yl)-2-(1-ethylpiperidin-4-yl)-5-methylbenzo[d]thiazole-6-carboxamide] was tested, and the “Inhibition of PGE2-stimulated cyst formation in 3D culture of m-IMCD3 cells (FIG. 2)” value was “concentration-dependent inhibition”.
